Results published in US5843941A, “Ras farnesyl transferase inhibitors” (Genentech, Inc., priority 1994, dated 1998).

Legend:
[1] = test system: H-ras(Val12)-transformed rat-1 fibroblasts (rat 2.2 cells); assay: Changes in morphology of H-ras-transformed cells; format: cell-based; settings: 5 days; FIG. 6A/6B
Description: Compound 27A (denoted as BG269A in the figure) and compound 27B (denoted as BG269B in the figure) were added at 250 μM to test whether these compounds would induce reversion to a more normal phenotype as had been previously shown with microinjection of anti-Ras antibodies (see Feramisco, J. R. et al Nature 314, 639 (1985)). The H-ras transformed cells, denoted as rat 2.2 cells, were generated by transfection of rat-1 fibroblasts as described (see Seeburg, P. H., Colby, W. W., Capon, D. J., Goeddel, D. V., and Levinson, A. D. Nature 312,71 (1984)). Cells that overgrew the monolayer were extracted and plated onto agar to obtain a cell line displaying a fully transformed phenotype. Untransformed rat-1 fibroblasts and src-transformed rat-1 fibroblasts were also treated. The src-transformed cells were generated by co-transfection of rat-1 fibroblasts with pSV3.Neo.src, a vector containing the gene for src as well as the gene that confers G418 resistance, both under control of SV40 early promoters. G418-resistant cell clones that diplayed a transformed phenotype were used to generate the cell line. On day 0, cells were plated in monolayer culture at 3×10^3 cells per well (24-well plates) in 1 ml DMEM supplemented with 10% FCS, 100 U/ml penicillin, 10 μg/ml streptomycin, 2% DMSO, and 0.5 mM DTT with and without 200 μM inhibitor. On day 3, the cells were refed with the same medium. On day 5, the cells were photographed under contrast at a magnification of 100X. […] This change in morphology is remarkably similar to that seen following injection of anti-ras antibodies into ras-transformed cells (see Feramisco, J. R. et al Nature 314, 639 (1985)). Rat-1 fibroblasts transformed with the src oncogene also grew in a multilayered pattern (FIG. 6C), but this was not affected by compound 27A or compound 27B (FIG. 6D).

[2] = test system: Ras proteins in Met18b-2 cells; assay: Incorporation of [3H]mevalonate into immunoprecipitated Ras proteins in Met18b-2 cells; format: cell-based, Chinese hamster; settings: FIG. 5
Description: In each experiment, aliquots of the Triton X-100 fraction (300 μg protein, prepared as described above) were incubated with 1 μg anti-Ras monoclonal antibody (Oncogene Sciences, Inc.) overnight at 4° C. on a rotating platform. Immune complexes were precipitated by addition of 25 μl Protein A-agarose suspension that had been pre-coated with goat anti-rat IgG (Oncogene Sciences, Inc.) according to the manufacturer's instructions. After a 30 min incubation at 4° C., the agarose beads were pelleted by centrifugation and washed 5 times with 1 ml each of wash solution (50 mM Tris-HCl, 50 mM NaCl, 0.5% (w/v) deoxycholate, 0.5% (v/v) Nonidet P-40, and 0.1% (w/v) SDS at pH 7.5). 75 μl of 1X SDS sample buffer was added and each sample heated for 5 min at 95° C. before electrophoresis as above.

[3] = test system: untransformed rat-1 fibroblasts; assay: Changes in morphology of untransformed cells; format: cell-based; settings: FIG. 6E and F
Description: (§1) Compound 27A (denoted as BG269A in the figure) and compound 27B (denoted as BG269B in the figure) were added at 250 μM to test whether these compounds would induce reversion to a more normal phenotype as had been previously shown with microinjection of anti-Ras antibodies (see Feramisco, J. R. et al Nature 314, 639 (1985)). The H-ras transformed cells, denoted as rat 2.2 cells, were generated by transfection of rat-1 fibroblasts as described (see Seeburg, P. H., Colby, W. W., Capon, D. J., Goeddel, D. V., and Levinson, A. D. Nature 312,71 (1984)). Cells that overgrew the monolayer were extracted and plated onto agar to obtain a cell line displaying a fully transformed phenotype. Untransformed rat-1 fibroblasts and src-transformed rat-1 fibroblasts were also treated. The src-transformed cells were generated by co-transfection of rat-1 fibroblasts with pSV3.Neo.src, a vector containing the gene for src as well as the gene that confers G418 resistance, both under control of SV40 early promoters. G418-resistant cell clones that diplayed a transformed phenotype were used to generate the cell line. On day 0, cells were plated in monolayer culture at 3×10^3 cells per well (24-well plates) in 1 ml DMEM supplemented with 10% FCS, 100 U/ml penicillin, 10 μg/ml streptomycin, 2% DMSO, and 0.5 mM DTT with and without 200 μM inhibitor. On day 3, the cells were refed with the same medium. […]

[4] = test system: src-transformed rat-1 fibroblasts; assay: Changes in morphology of src-transformed cells; format: cell-based; settings: FIG. 6C/6D
Description: as §1

[5] = test system: low molecular weight GTP binding proteins (SMG) in Met18b-2 cells; assay: [3H]mevalonate labeling of low molecular weight GTP binding proteins (SMG) in Met18b-2 cells; format: cell-based, Chinese hamster; settings: 250 μM; FIG. 3
Source text: (§2) To study farnesylation in intact cells we used Met18b-2 cells, a line of Chinese hamster ovary (CHO) cells that takes up [3H]mevalonate efficiently (see Faust, J., and Krieger, M. J. Biol. Chem. 262, 1966 (1987)) owing to the production of a mevalonate transport protein (see Kim, C. M., Goldstein, J. L., Brown, M. S. J. Biol. Chem. 267, 23113 (1992)). The [3H]mevalonate is converted by the cells into [3H]farnesyl pyrophosphate and [3H]geranylgeranyl pyrophosphate, which are then attached to proteins (Kim, C. M., Goldstein, J. L., Brown, M. S. J. Biol. Chem. 267, 23113 (1992)). In the assay, stock cultures of Met18b-2 cells were seeded at a density of 3-105 cells per 60 mm dish in 3 ml of medium A (Dulbecco's modified Eagle medium/Ham's F12 medium (1:1, v/v) containing 100 U/ml penicillin and 100 μg/ml streptomycin) supplemented with 5% (v/v) fetal calf serum (FCS). On day 3, each monolayer was refed with 1 ml medium A supplemented with 1% FCS (dialyzed against 0.15 M NaCl). At this point the cells were treated with 100 μM compactin (see Brown, M. S., Faust, J. R., Goldstein, J. L., Kaneko, I., and Endo, A. J. Biol. Chem. 253, 1121 (1978)) which blocks the synthesis of unlabeled mevalonate within the cells. Each compound was dissolved at 25 mM in DMSO/10 mM DTT immediately before use and 10 μl of this solution added directly. After 2 hr incubation at 37° C., each monolayer received 100 μCi [3H]mevalonate (60 Ci/mmol, American Radiolabeled Chemicals, Inc.) added in 100 μl of the medium A, and the incubation continued for 4 hr. The cells were harvested by rinsing three times with 3 ml of 50 mM Tris-HCl/0.15 M NaCl (pH 7.5). 300 μl of lysis buffer (0.5X Dulbecco's phosphate-buffered saline containing 1% Triton X-100, 5 μg/ml leupeptin, 5 μg/ml pepstatin, 0.5 mM phenylmethylsulfonyl fluoride, and 0.05 U/ml aprotinin) was added to each monolayer. After incubation on ice for 5 mon, the lysates were centrifuged 30 sec in a microfuge at 12,000 g. […] Protein concentrations were determined using the BCA protein assay reagent (Pierce) according to the manufacturer's instructions. […]

CAAX GG transferase = target: T1, CAAX GG transferase (Rattus norvegicus, UniProt P53610+Q04631); assay: Inhibition of CAAX GG transferase (geranylgeranyltransferase); format: biochemical; settings: 31B (leucine) vs 27B (methionine); FIG. 2B
T1 construct: partially purified CAAX GG transferase; from tissue
Source text: FIG. 1 compares the inhibitory activity of compound 27B (denoted as BG269B in the figure) on protein prenyltransferases. […] Two other prenyltransferases, both of which transfer 20-carbon geranylgeranyl (GG) groups, have been identified in rat brain. One of thesse, CAAX GG transferase, attaches GG groups to proteins that terminate in CAAX sequences in which X is leucine.
The conditions used to assay the inhibition of CAAX farnesyltransferase are identical to those described above for the in vitro, assay described in Example 121. In FIG. 1B the assay mixture contained, in a final volume of 50 μl, 50 mM sodium Hepes (pH 7.2), 5 mM MgC12, 5 mM DTT, 0.3 mM Nonidet P-40, 0.2% octyl β-glucoside, 1% DMSO, 0.5 μM all trans [3H]geranylgeranyl pyrophosphate (33,000 dpm/pmol; ARC, Inc.), 5 μM recombinant p21^H-rasCVLL, 6.3 μg partially purified CAAX GG transferase (see Seabra, M. C., Reiss, Y., Casey, P. J., Brown, M. S., and Goldstein, J. L. Cell 268, 4055 (1993)) and varying concentrations of the indicated inhibitor. In FIG. 1C, the assay mixture contained in a final volume of 50 μl, 50 mM sodium Hepes (pH 7.2), 5 mM MgCl2, 5 mM DTT, 0.3 mM Nonidet P-40, 0.2% octyl β-D-glucoside, 1% DMSO, 0.5 μM all trans [3H]geranylgeranyl pyrophosphate (33,000 dpm/pmol; ARC, Inc.), 2 μM recombinant Rab1A, 2 ng each of purified Components A and B of Rab GG transferase (see Seabra, M. C., Goldstein, J. L., Sudhof, T. C., and Brown, M. S. J. Biol. Chem. 267, 14497 (1992)) and varying concentrations of the indicated inhibitor.
Each assay was carried out as described in Examples 121 and 122.

[6] = test system: farnesylated proteins F1, F2 and F3 in Met18b-2 cells; assay: Inhibition of intracellular farnesylation in intact Met18b-2 cells, Triton-soluble proteins F1, F2, F3; format: cell-based, Chinese hamster; settings: 250 μM; FIG. 3
Source text: To study farnesylation in intact cells we used Met18b-2 cells, a line of Chinese hamster ovary (CHO) cells that takes up [3H]mevalonate efficiently (see Faust, J., and Krieger, M. J. Biol. Chem. 262, 1966 (1987)) owing to the production of a mevalonate transport protein (see Kim, C. M., Goldstein, J. L., Brown, M. S. J. Biol. Chem. 267, 23113 (1992)). The [3H]mevalonate is converted by the cells into [3H]farnesyl pyrophosphate and [3H]geranylgeranyl pyrophosphate, which are then attached to proteins (Kim, C. M., Goldstein, J. L., Brown, M. S. J. Biol. Chem. 267, 23113 (1992)). In the assay, stock cultures of Met18b-2 cells were seeded at a density of 3-105 cells per 60 mm dish in 3 ml of medium A (Dulbecco's modified Eagle medium/Ham's F12 medium (1:1, v/v) containing 100 U/ml penicillin and 100 μg/ml streptomycin) supplemented with 5% (v/v) fetal calf serum (FCS). On day 3, each monolayer was refed with 1 ml medium A supplemented with 1% FCS (dialyzed against 0.15 M NaCl). At this point the cells were treated with 100 μM compactin (see Brown, M. S., Faust, J. R., Goldstein, J. L., Kaneko, I., and Endo, A. J. Biol. Chem. 253, 1121 (1978)) which blocks the synthesis of unlabeled mevalonate within the cells. Each compound was dissolved at 25 mM in DMSO/10 mM DTT immediately before use and 10 μl of this solution added directly. After 2 hr incubation at 37° C., each monolayer received 100 μCi [3H]mevalonate (60 Ci/mmol, American Radiolabeled Chemicals, Inc.) added in 100 μl of the medium A, and the incubation continued for 4 hr. The cells were harvested by rinsing three times with 3 ml of 50 mM Tris-HCl/0.15 M NaCl (pH 7.5). 300 μl of lysis buffer (0.5X Dulbecco's phosphate-buffered saline containing 1% Triton X-100, 5 μg/ml leupeptin, 5 μg/ml pepstatin, 0.5 mM phenylmethylsulfonyl fluoride, and 0.05 U/ml aprotinin) was added to each monolayer. After incubation on ice for 5 mon, the lysates were centrifuged 30 sec in a microfuge at 12,000 g. The resulting supernatant was tranferred to a new tube, and each pellet was resuspended in 60 μl of lysis buffer. Protein concentrations were determined using the BCA protein assay reagent (Pierce) according to the manufacturer's instructions. Detergent-soluble (supernatant) and -insoluble (pellet) samples were mixed with 2X SDS sample buffer (see Laemmli, U. K. Nature 227, 680 (1970)) and heated at 95° C. for 5 min before electrophoresis. Each lane contained 90 μg protein, and was run on a 12.5% SDS-polyacrylamide gel. The gel was dried, treated with ENTENSIFY (NEN-DuPont), and exposed to Kodak XOMAT-AR film for 9 h at -80° C. to allow visualization of all prenylated proteins. Migration of [14C]methylated molecular weight standards (Amersham) were used as markers.
The results of this assay are shown in FIG. 3, using a final concentration of 250 μM for each inhibitor. […] As shown in the figure, none of the control peptides or control benzodiazepine-peptideomimetics altered the prenylation of proteins in intact cells.
Using the same cells and procedures followed above for Example 125, we measured the dose dependence upon the inhibition of farnesylation in intact cells. […] Compound 37B inhibited the famesylation of F1-3 detectably at 10 μM, and almost completely at 25 μM.
In this manner, it is possible to obtain data regarding the comparative potency of these inhibitors upon the level of intracellular farnesylation. We have chosen to report the EC90% values for these inhibitors as the concentration required for a reduction in the Triton- soluble labelling (denoted F-1, F-2, and F-3) to 90% of control cells (untreated).

[7] = test system: nuclear lamins A and B in Met18b-2 cells; assay: [3H]mevalonate labeling of farnesylated nuclear lamins in Met18b-2 cells; format: cell-based, Chinese hamster; settings: 250 μM; FIG. 3
Source text: as §2, with “cells.” for “cells. Each compound was dissolved at 25 mM in DMSO/10 mM DTT immediately before use and 10 μl of this solution added directly. After 2 hr incubation at 37° C., each monolayer received 100 μCi [3H]mevalonate (60 Ci/mmol, American Radiolabeled Chemicals, Inc.) added in 100 μl of the medium A, and the incubation continued for 4 hr. The cells were harvested by rinsing three times with 3 ml of 50 mM Tris-HCl/0.15 M NaCl (pH 7.5). 300 μl of lysis buffer (0.5X Dulbecco's phosphate-buffered saline containing 1% Triton X-100, 5 μg/ml leupeptin, 5 μg/ml pepstatin, 0.5 mM phenylmethylsulfonyl fluoride, and 0.05 U/ml aprotinin) was added to each monolayer. After incubation on ice for 5 mon, the lysates were centrifuged 30 sec in a microfuge at 12,000 g.”

T1 sequence (P53610 whole entry, one chain of several): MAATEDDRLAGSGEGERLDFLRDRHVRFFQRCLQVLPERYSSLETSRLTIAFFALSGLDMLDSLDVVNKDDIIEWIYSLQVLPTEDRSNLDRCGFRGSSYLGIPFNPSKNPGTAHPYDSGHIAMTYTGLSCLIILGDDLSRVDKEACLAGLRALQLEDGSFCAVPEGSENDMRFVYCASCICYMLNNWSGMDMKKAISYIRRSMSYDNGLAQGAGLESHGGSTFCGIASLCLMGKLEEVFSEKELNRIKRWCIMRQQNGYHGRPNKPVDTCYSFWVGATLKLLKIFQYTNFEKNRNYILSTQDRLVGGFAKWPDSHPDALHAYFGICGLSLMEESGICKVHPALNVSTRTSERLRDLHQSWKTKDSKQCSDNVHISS

Compound	effect on transformed phenotype (morphology) [1]	effect of control molecules on [3H]mevalonate incorporation [2]	effect on morphology of untransformed cells [3]	effect on morphology of src-transformed cells [4]	effect on low molecular weight GTP binding proteins (SMG) [5]	fold more sensitivity of CAAX geranylgeranyltransferase to leucine-terminated inhibitor (CAAX GG transferase) [fold]	labeling of Triton-soluble farnesylated proteins (F1 to F3) [6]	labeling of farnesylated lamins (F-NL) [7]
CSCC[C@H](NC(=O)CN1C(=O)C(N(C)C(=O)[C@@H](N)CS)N=C(c2ccccc2)c2ccccc21)C(=O)O (single isomer, unassigned) [27A]	had no effect	had no effect	no apparent effect on the morphology of untransformed rat-1 fibroblasts	not affected	–	–	–	–
CC(C)C[C@H](NC(=O)CN1C(=O)C(N(C)C(=O)[C@@H](N)CS)N=C(c2ccccc2)c2ccccc21)C(=O)O (single isomer, unassigned) [31B, N-[[3-[(2-amino-3-mercapto-1-oxopropyl)methylamino]-2,3-dihydro-2-oxo-5-phenyl-1H -1,4-benzodiazepin-1-yl]acetyl]-L-leucine]	–	–	–	–	little effect on the low molecular weight GTP binding proteins	5	markedly decreased the labeling of all three Triton-soluble farnesylated proteins (F1 to F3)	reduced moderately the labeling of the farnesylated lamins
